According to PMC3720542, “Population pharmacokinetics of mefloquine, piperaquine and artemether-lumefantrine in Cambodian and Tanzanian malaria patients” (Malaria Journal, 2013):
Like-named read-outs stand apart in the source and are kept apart here. Marks after values point to notes of the source that are not given here. One block for each molecule: values may come before it.

Legend:
[1] = Population pharmacokinetic analysis (NONMEM) of artemether-lumefantrine and metabolites in Tanzanian malaria patients (Kibaoni); type: in vivo, human; conditions: for clearance / Vd: human, plasma, oral; for Vd: read-out: VSS (steady-state volume of distribution), population estimate for a person of 70 kg
Method: Three studies have been conducted, one in Tanzania and two in Cambodia. The study profiles are described in Figure 1. The first study was performed during March to May 2008 at the Kibaoni Health Centre, Kilombero district, Morogoro region, Tanzania. […] Six AM-LF (Coartem®, Novartis Pharma, Switzerland) doses were administered at time 0, 8, […] according to body weight (see Table 1); patients were either admitted for three days or asked to come back to the health facility for each drug administration. Mothers of breastfed patients were encouraged to feed their children and patients admitted were provided with food. Patients who reported that they have not eaten within two hours to prior dose intake were instructed to eat as soon as possible. Patients were seen by the clinical officer on days 0, 1, 2, 3, 7, 14, 28, and 42. A blood sample for pharmacokinetic measurement was taken at baseline (pre-dose on day 0) and on days 1, 2, and 7 at pre-defined random times after the last dosing. At each visit, a filter paper sample and a thin and thick smear were taken, in addition to axillary temperature, respiratory rate and haemoglobin measurements (only on days 0, 28 and 42) as well as evaluation of symptoms (e.g. headache, vomiting, and diarrhea). The exact dose and time of last drug intake, body weight, height, age, sex, food intake and concomitant medications were carefully recorded. If patients suffered from concomitant illnesses they were provided with additional treatment (paracetamol, mebendazole, metronidazole, cloxacillin, amoxicillin). Samples of 2 ml of venous blood were collected on an EDTA Vacutainer and kept on ice for no longer than 6 h after withdrawal and then aliquoted into whole blood, plasma and pellet and immediately stored in liquid nitrogen or a -80°C freezer. […] The laboratory is part of the quality control system of the World-Wide Antimalarial Resistance Network (WWARN). The pharmacokinetic analysis for each drug taken separately was performed using the NONMEM computer program Version 6 (NM-TRAN version II). It uses mixed (fixed and random) effects regression to estimate population means and variances of the pharmacokinetic parameters and to identify factors that influence them. One-, two- and three-compartment pharmacokinetic models with first-order absorption, with and without absorption lag times, were compared. Additional one or two-compartments were used for anti-malarials presenting metabolite concentrations (AM and LF). The final parameters estimated were systemic clearance (CL/F), inter-compartmental clearance (Q/F), central volume of distribution (VC/F), peripheral volume of distribution (VP/F) and absorption rate constant (ka). Since no intravenous drug concentration data were available, these parameters represent apparent values. Where available, metabolite data were included into the model and metabolism rate constant from drug compartment to metabolite compartment (k23) and metabolite clearance (CLmet) were also estimated. Owing to identifiability problems, the volume of distribution of the metabolites (VM) DLF and DHA were assumed to equal LF and AM VC, respectively. […] The observed baseline residual plasma concentrations were fitted by estimating a factor (F0) that provided an estimation of the residual doses from previous treatment. […] Proportional and combined proportional-and-additive error models were compared to describe intra-patient (residual) variability for the mother compound, and if available for its metabolite using Cpij(1 + ε1ij) + ε2ij or Cmij(1 + ε3ij) + ε4ij, where Cpij are the corresponding predicted i^th drug plasma concentration and Cmij are the predicted metabolite concentration for the j^th individual, and ε1ij, ε2ij, ε3ij, ε4ij, are independent normally distributed residual error terms with a mean of zero and a variance of σ^2_1, σ^2_2, σ^2_3, σ^2_4. The covariate analysis was performed using a stepwise insertion/deletion approach. […]

[2] = cited from earlier work
[3] = Population pharmacokinetic analysis (NONMEM) of piperaquine in Cambodian malaria patients (Pramoy, DHA-PPQ); type: in vivo, human
Method: The third study was performed during July to October 2008 at Pramoy Health Centre, Veal Veng district, Pursat province, Cambodia. A total of 287 suspected malaria cases were screened by microscopy, of whom 82 (29%) were infected with P. falciparum and 50 (17%) with P. vivax (no mixed infections). Children younger than six years of age and pregnant or lactating women were excluded. Three doses of DHA-PPQ (Duo-Cotecxin®, Zhejiang Holley Nanhu Pharmaceutical Co., Ltd, China) were given according to age (as per national guidelines) on three consecutive days (see Table 1). Same follow-up and blood sampling as at Phnom Dék were performed.
Samples of 2 ml of venous blood were collected on an EDTA Vacutainer and kept on ice for no longer than 6 h after withdrawal and then aliquoted into whole blood, plasma and pellet and immediately stored in liquid nitrogen or a –80°C freezer. […] The method was validated according to FDA recommendations, including assessment of extraction yield, matrix effect variability, overall process efficiency, standard addition experiments as well as anti-malarials short- and long-term stability in plasma. […] The laboratory is part of the quality control system of the World-Wide Antimalarial Resistance Network (WWARN).
The pharmacokinetic analysis for each drug taken separately was performed using the NONMEM computer program Version 6 (NM-TRAN version II). It uses mixed (fixed and random) effects regression to estimate population means and variances of the pharmacokinetic parameters and to identify factors that influence them.
One-, two- and three-compartment pharmacokinetic models with first-order absorption, with and without absorption lag times, were compared. Additional one or two-compartments were used for anti-malarials presenting metabolite concentrations (AM and LF). The final parameters estimated were systemic clearance (CL/F), inter-compartmental clearance (Q/F), central volume of distribution (VC/F), peripheral volume of distribution (VP/F) and absorption rate constant (ka). Since no intravenous drug concentration data were available, these parameters represent apparent values. Where available, metabolite data were included into the model and metabolism rate constant from drug compartment to metabolite compartment (k23) and metabolite clearance (CLmet) were also estimated. Owing to identifiability problems, the volume of distribution of the metabolites (VM) DLF and DHA were assumed to equal LF and AM VC, respectively. […] The observed baseline residual plasma concentrations were fitted by estimating a factor (F0) that provided an estimation of the residual doses from previous treatment.
Exponential errors following a log-normal distribution were assumed for the description of inter-patient variability of the pharmacokinetic parameters and were of the form: θi=θ×e^ηj where θi is the individual pharmacokinetic parameter value in the j^th individual, θ is the population parameter estimate, and ηj is the random effect value, which is independently and normally distributed with a mean of 0 and variance ω^2. Proportional and combined proportional-and-additive error models were compared to describe intra-patient (residual) variability for the mother compound, and if available for its metabolite using Cpij(1 + ϵ1ij) + ϵ2ij or Cmij(1 + ϵ3ij) + ϵ4ij, where Cpij are the corresponding predicted i^th drug plasma concentration and Cmij are the predicted metabolite concentration for the j^th individual, and ϵ1ij, ϵ2ij, ϵ3ij, ϵ4ij, are independent normally distributed residual error terms with a mean of zero and a variance of σ^2_1, σ^2_2, σ^2_3, σ^2_4.
The covariate analysis was performed using a stepwise insertion/deletion approach. Visual inspection of the correlation between post hoc individual estimates of the pharmacokinetic parameters and the available covariates was first conducted by graphical exploration. […]

[4] = bootstrap evaluation, 200 replicates
[5] = present study, Tanzanian patients, sampling 7 days
[6] = patients, age 7.7 ± 1.4 years, n 13, sampling 28 days
[7] = patients, median age 4.0 (1–10) years, n 50, sampling 72 h
[8] = patients, median age 22 (14–60) years, n 217
[9] = pregnant women, median age 21 (16–35) years, n 21, sampling 10 h
[10] = non-pregnant women, median age 27.5 (18–45) years, n 24, sampling 84 days
[11] = patients, median age 6 (2–10) years, n 236, sampling 42 days
[12] = pregnant women, median age 25 (18–43) years, n 24, sampling 84 days

- VC, bootstrap mean of 200 [1, 4]: 133 L/kg
- k23, bootstrap mean of 200 [1, 4]: 5.83 h⁻¹
- ka, bootstrap mean of 200 [1, 4]: 0.27 h⁻¹
- θINH, bootstrap mean of 200 [1, 4]: −0.27
- σC (CV%), bootstrap mean of 200 [1, 4]: 73%
- decrease in CL in patients exposed to a CYP2C9 or CYP3A4 inhibitor ([1]; concomitant treatment): 70%
- IIV (inter-individual variability) of CL ([1]; final model): 44%
- IIV (inter-individual variability) of k23 ([1]; final model): 68%
- IIV (inter-individual variability) of ka ([1]; final model): 119%
- ka (first-order absorption rate constant), population estimate ([1]; final model): 0.27 h⁻¹
- σC (CV%), residual error for the central compartment, population estimate ([1]; final model, intra-patient variability): 74%
- k23 (metabolism rate constant), population estimate ([1]; final model, parent to metabolite (AM to DHA, LF to DLF)): 5.86 h⁻¹
- clearance [1, 5]: 9970 mL/min
- Vd [1, 5]: 129 L
SMILES: CO[C@H]1O[C@@H]2O[C@@]3(C)CC[C@H]4[C@H](C)CC[C@@H]([C@H]1C)[C@@]24OO3 [Artemether, artemether]
- CL, population estimate for a person of 70 kg [2, 6]: 102 L/h
- VSS, population estimate for a person of 70 kg [2, 6]: 1263 L
- CL, population estimate for a person of 70 kg [2, 7]: 182–700^b L/h
- VSS, population estimate for a person of 70 kg [2, 7]: 364 L
- CL, population estimate for a person of 70 kg [2, 8]: 252^a L/h
- VSS, population estimate for a person of 70 kg [2, 8]: 304^a L
- CL, population estimate for a person of 70 kg [2, 9]: 1054^d L/h
- VSS, population estimate for a person of 70 kg [2, 9]: 2602^d L

- clearance [1, 5]: 6980 mL/min
- Vd [1, 5]: 129 L
SMILES: C[C@H]1[C@@H](O)O[C@@H]2O[C@@]3(C)CC[C@H]4[C@H](C)CC[C@@H]1[C@@]24OO3 [DHA, dihydroartemisinin]
- CL, population estimate for a person of 70 kg [2, 8]: 237^a L/h
- CL, population estimate for a person of 70 kg [2, 9]: 564 L/h

- CL, population estimate for a person of 70 kg [1, 5]: 336 L/h
- VSS (steady-state volume of distribution), population estimate for a person of 70 kg [1, 5]: 265^f L
SMILES: CCCCNCC(O)c1cc(Cl)cc2c1-c1ccc(Cl)cc1/C2=C/c1ccc(Cl)cc1 (centres unmarked) [DLF, desbutyl-lumefantrine]
- CL, population estimate for a person of 70 kg [2, 6]: 701 L/h

- F0, bootstrap mean of 200 [3, 4]: 125 mg
- Q, bootstrap mean of 200 [3, 4]: 126 L/h
- VP, bootstrap mean of 200 [3, 4]: 20,053 L
- ka, bootstrap mean of 200 [3, 4]: 1.00 h⁻¹
- σC, bootstrap mean of 200 ([3]; bootstrap evaluation, 200 replicates, listed as head prints [μmolL^-1]): 41%
- IIV (inter-individual variability) of CL ([3]; final model): 45%
- IIV (inter-individual variability) of VC ([3]; final model): 65%
- IIV (inter-individual variability) of VP ([3]; final model): 50%
- ka (first-order absorption rate constant), population estimate ([3]; final model): 0.93 h⁻¹
- F0 (residual amount from the previous treatment), population estimate ([3]; final model, baseline): 123 mg
- clearance ([3]; human, plasma, oral, present study, 60 patients, sampling 14 days): 1820 mL/min
- Vd ([3]; human, plasma, oral, present study, 60 patients, sampling 14 days, read-out: VSS, population estimate for a person of 70 kg): 42800 L
- residual dose (F0) as percentage of an initial dose ([3]; initial dose 480–960 mg): 12.8–25.6%
SMILES: Clc1ccc2c(N3CCN(CCCN4CCN(c5ccnc6cc(Cl)ccc56)CC4)CC3)ccnc2c1 [Piperaquine, piperaquine]
- CL, population estimate for a person of 70 kg [2, 10]: 92 L/h
- VSS, population estimate for a person of 70 kg [2, 10]: 58,030 L
- CL, population estimate ([2]; patients, age 3–55 years, n 98, sampling 63 days): 98^h L/h
- VSS, population estimate ([2]; patients, age 3–55 years, n 98, sampling 63 days, for a patient with a median body weight of 48 kg): 61,180^i L
- CL, population estimate for a person of 70 kg [2, 11]: 29 L/h
- VSS, population estimate for a person of 70 kg [2, 11]: 14,972 L
- CL, population estimate for a person of 70 kg [2, 12]: 90 L/h
- VSS, population estimate for a person of 70 kg [2, 12]: 37,030 L
